Entries after “also recorded” stand apart in the source; their conditions may differ.
Tests used:
[1] = system: APC premature stop codon C1450X; assay: Yeast APC premature stop codon URA3/ADE2 reporter spot test on plates; assay type: cell-based; details: 20 ug/ml G418, spot test, 3-5 days at 30° C., Pgal1-APCmut-URA3/ADE2 strain
Text: A nucleic acid sequence containing a nonsense mutation was introduced into a yeast expression construct under the transcriptional control of a promoter e.g., an inducible promoter such as a galactose inducible promoter. The nucleic acid sequence containing the nonsense mutation was fused to a first marker gene such as URA3 and/or ADE2 (or other gene that results in an auxotroph if the gene is not transcribed and translated). The plasmid was integrated into an intergenic region in the genome of a modified yeast strain harboring deletion of ura3 and/or ade2 using conventional LiAc yeast transformation methods. Integrants were selected on media plates containing the antibiotic Hygromycin B or lacking histidine selecting for the marker present on the expression plasmid. Integrated strains were incubated with test compounds and plated on relevant growth media. Suitable test compounds include, for example, libraries of small molecules or expression libraries. […] Production of URA3 allowed the yeast cells to grow and form colonies on media lacking uracil after 2-4 days incubation at 30° C. Production of ADE2 conferred a white coloration of the yeast colonies and allowed the yeast cells to grow and form colonies on media plates lacking adenine after 2-4 days incubation at 30° C. […]
Next, the yeast strains were tested for read-through of the stop codon in the presence of the aminoglycoside G418. […]

[2] = system: P53 STOP (TAA198), P53 STOP (TAG221), P53 STOP (TGA196); assay: Yeast p53 stop codon URA3 reporter suppression on SCgal-ura plates; assay type: cell-based
Procedure: In addition to the APC stop-codon assay, other oncology targets including p53 were analyzed. Here, yeast strains were engineered with PGAL1-P53 STOP (TAA198)-URA3 (EFSC2231 and EFSC2233), PGAL1-P53 STOP (TAG221)-URA3 (EFSC2186 and EFSC2200) and PGAL1-P53 STOP (TGA196)-URA3 (EFSC2232 and EFSC2201) reporter integrated at the PRP5 locus. The strains were tested for suppression with G418 on SCgal-ura plates supplemented with increasing G418 concentrations.

[3] = system: APC premature stop codon luciferase reporter; assay: Dual Luciferase Assay, yeast APC premature stop codon Fluc reporter; assay type: cell-based; details: haploid and diploid strains (EFSC2740), compared to vehicle only (DMSO), triplicate
Procedure: To assess functionality of the Fluc reporter system, a luciferase activity protocol for the Dual Luciferase® Assay kit (Promega) was optimized to be able to test yeast strains in 96-well format. A representative experiment is outlined here. The yeast were incubated for 30° C. overnight. The luciferase assay was performed according to manufacturer's recommended protocol. Briefly, yeast cells were resuspended in SCgal culture media and measured at A600. A 10 uL sample was transferred to a white-opaque-bottom 96-well plate, mixed with 50 uL of passive lysis buffer and incubated at room-temperature for 20-30 minutes with gentle shaking. Next, 50 uL of luciferase assay reagent II and 50 uL of Stop & Glo® reagent were added. The plate was read in a plate reader using a dual luciferase program. The remaining yeast culture was maintained at 30° C. and the luciferase assays was performed daily.
The results of the above Dual Luciferase® Assay experiment are shown in FIG. 4 (samples were tested in triplicate and data was analyzed by GraphPad® with error bars showing mean with 95% confidence interval). Here, 3 different integration sites for the Fluc reporter were analyzed both in a haploid assay strain and in a diploid setting in the presence of aminoglycosides G418 and paromomycin. […]

[4] = system: native stop codons in human genes (V-ATPase, Mdm2, ArhGAP1, DAT and PKCb, and striatin); assay: Yeast URA3 reporter spot test with native stop codons of human genes; assay type: cell-based
Text: In a similar set-up, read-through of 6 native stop codons in human genes (V-ATPase, Mdm2, ArhGAP1, DAT and PKCb, and striatin) was examined in front of the URA3 reporter system. […] A representative spot-test analysis is shown in FIG. 3B, where a strain containing the native stop codon of the human striatin gene was compared with the strain containing the APC premature stop codon mutant.

[5] = system: premature stop codon in APC; assay: Liquid suppression test, strain EFSC2686, APC premature stop codon URA3 reporter; assay type: cell-based, yeast
Procedure: Liquid suppression tests were also conducted with a different aminoglycoside, paromomycin. Read-through of the premature stop codon in APC was also observed after liquid cultivation of the strain in the presence of increasing concentrations of the aminoglycoside paromomycin. Here, strain EFSC2686 was grown in SCgal-ura media in the presence of increasing amounts of drug (0-500 uM) and growth rate was monitored on a daily basis. The presence of ≧250 uM paromomycin supports growth in SCgal media lacking uracil after 4 days incubation (see FIG. 3C).

## CN[C@@H]1[C@@H](O)[C@@H](O[C@@H]2[C@@H](O)[C@H](O[C@H]3O[C@H]([C@@H](C)O)[C@@H](O)[C@H](O)[C@H]3N)[C@@H](N)C[C@H]2N)OC[C@]1(C)O [G418]
[1]
  read-through of the APC premature stop codon (growth on SCgal-ura plates): allows translation read-through of the APC gene; also recorded: triggered read-through of the stop codon
[2]; G418, SCgal-ura plates
  order of suppression response by stop codon: TGA>TAG>TAA
[2]; increasing G418 concentrations, TAA198, TAG221 and TGA196 strains, all cases
  expression of Ura3p, growth on SCgal-ura3 plates: able to trigger expression of Ura3p
[3]
  Firefly luciferase activity: able to induce luciferase activity; also recorded: robust and significant Firefly luciferase activity
[4]; 20 ug/ml G418, APC mutant versus 6 native stop codons
  selectivity of suppression, premature versus native stop codons: selective for premature stop codons
[4]; SCgal-uracil + 20 ug/ml G418, 6 native stop codons
  read-through of native stop codons (growth on SCgal-uracil): no detectable read-through of stop codon was observed

## NC[C@@H]1O[C@H](O[C@H]2[C@@H](O)[C@H](O[C@@H]3[C@@H](O)[C@H](N)C[C@H](N)[C@H]3O[C@H]3O[C@H](CO)[C@@H](O)[C@H](O)[C@H]3N)O[C@@H]2CO)[C@H](N)[C@@H](O)[C@@H]1O [paromomycin]
[5]; liquid cultivation, FIG. 3C
  suppression of the APC stop codon, production of URA3 protein: leads to suppression of the APC stop codon and production of URA3 protein
[5]; strain EFSC2686, 0-500 uM tested, after 4 days incubation
  paromomycin concentration that supports growth in SCgal media lacking uracil: ≥ 250 µM
[3]
  Firefly luciferase activity: able to induce luciferase activity

— patent US20170306322A1, “METHODS AND MATERIALS FOR IDENTIFYING COMPOUNDS PROMOTING TRA[…]-THROUGH OF NONSENSE MUTATIONS” (Evolva SA, priority 2013, published 2017)
